In ChEMBL document CHEMBL5579889, “Structure-Based Design and Development of Phosphine Oxides as a Novel Chemotype for Antibiotics that Dysregulate Bacterial ClpP Proteases” (J Med Chem, 2024):
pEC50: −log10 of the molar value. Values after ≈ are worked out from the molar mass of the structure shown. Blank lines part the entries; values can stand above or below the compound they belong to. Active and inactive are the calls of the source. No cut-off for these calls is given here. Bridge positions count the residues as written; N and C are the ends. Square brackets hold non-standard residues; d marks the D form. Peptide text beside a SMILES is read from it. * marks the point of attachment. Phe(3,5-F2) = N[C@@H](Cc1cc(F)cc(F)c1)C(=O)O; Pro(4R-Me) = C[C@H]1CN[C@H](C(=O)O)C1; aThr = C[C@H](O)[C@H](N)C(=O)O; Pip = O=C(O)[C@@H]1CCCCN1; X1 = CCC/C=C/C=C/C(=O)*

How the values were obtained:
[1] = target: ATP-dependent Clp protease proteolytic subunit (Escherichia coli (strain K12), UniProt P0A6G7); test: Activation of N-terminal His-tagged recombinant Escherichia coli ClpP expressed in Escherichia coli SG1146(DE3) assessed as degradation of casein-FITC preincubated for 10 mins followed by casein addition measured for over 100 mins by fluorescence based assay
ATP-dependent Clp protease proteolytic subunit (Escherichia coli (strain K12), UniProt P0A6G7), sequence (P0A6G7 whole entry): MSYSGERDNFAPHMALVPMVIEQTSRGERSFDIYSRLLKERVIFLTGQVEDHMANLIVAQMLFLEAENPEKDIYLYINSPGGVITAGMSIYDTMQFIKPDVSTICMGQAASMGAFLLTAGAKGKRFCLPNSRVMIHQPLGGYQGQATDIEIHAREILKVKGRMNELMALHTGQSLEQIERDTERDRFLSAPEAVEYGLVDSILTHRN

[2] = target: T1, ATP-dependent Clp protease proteolytic subunit (Staphylococcus aureus (strain NCTC 8325)) (UniProt Q2G036); test: Activation of N-terminal His-tagged recombinant Staphylococcus aureus ClpP expressed in Escherichia coli SG1146(DE3) assessed as degradation of casein-FITC at 100 uM preincubated for 10 mins followed by casein addition measured for over 100 mins by fluorescence based assay; details: time > 110.0 min
T1 sequence (whole entry): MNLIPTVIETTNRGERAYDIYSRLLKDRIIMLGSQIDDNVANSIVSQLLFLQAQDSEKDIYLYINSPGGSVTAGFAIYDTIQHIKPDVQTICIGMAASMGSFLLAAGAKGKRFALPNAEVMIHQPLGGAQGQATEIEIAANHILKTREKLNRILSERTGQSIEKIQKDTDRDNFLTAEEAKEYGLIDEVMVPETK

[3] = target: ATP-dependent Clp protease proteolytic subunit (Neisseria gonorrhoeae, UniProt Q5F914); test: Activation of N-terminal His-tagged recombinant Neisseria gonorrhoeae ClpP expressed in Escherichia coli SG1146(DE3) assessed as degradation of casein-FITC preincubated for 10 mins followed by casein addition measured for over 100 mins by fluorescence based assay
ATP-dependent Clp protease proteolytic subunit (Neisseria gonorrhoeae, UniProt Q5F914), sequence (Q5F914 whole entry): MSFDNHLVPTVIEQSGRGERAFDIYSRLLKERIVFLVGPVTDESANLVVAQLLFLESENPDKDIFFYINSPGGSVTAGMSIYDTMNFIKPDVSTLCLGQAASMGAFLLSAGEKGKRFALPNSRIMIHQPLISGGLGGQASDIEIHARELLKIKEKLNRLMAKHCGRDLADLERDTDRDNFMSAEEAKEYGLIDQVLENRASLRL

[4] = system: Streptococcus pneumoniae; test: Activation of recombinant Streptococcus pneumoniae ClpP extracted from Escherichia coli SG1146(DE3) assessed as degradation of casein-FITC at 100 uM preincubated for 10 mins followed by casein addition measured for over 100 mins by fluorescence based assay; details: time > 110.0 min
[5] = target: ATP-dependent Clp protease proteolytic subunit, mitochondrial (Homo sapiens) (UniProt Q16740); test: Activation of N-terminal His-tagged recombinant human ClpP expressed in Escherichia coli SG1146(DE3) assessed as degradation of casein-FITC at 100 uM preincubated for 10 mins followed by casein addition measured for over 100 mins by fluorescence based assay; details: time > 110.0 min
ATP-dependent Clp protease proteolytic subunit, mitochondrial (Homo sapiens), sequence (Q16740 whole entry): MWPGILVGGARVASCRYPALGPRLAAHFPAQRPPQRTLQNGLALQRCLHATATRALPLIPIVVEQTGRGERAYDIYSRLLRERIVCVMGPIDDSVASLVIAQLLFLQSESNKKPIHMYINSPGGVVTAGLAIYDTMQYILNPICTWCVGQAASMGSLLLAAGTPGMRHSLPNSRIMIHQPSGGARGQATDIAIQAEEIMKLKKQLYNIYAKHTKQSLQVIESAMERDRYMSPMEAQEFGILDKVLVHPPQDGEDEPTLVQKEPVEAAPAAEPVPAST

[6] = target: ATP-dependent Clp protease proteolytic subunit (Neisseria gonorrhoeae) (UniProt Q5F914); test: Activation of N-terminal His-tagged recombinant Neisseria gonorrhoeae ClpP expressed in Escherichia coli SG1146(DE3) assessed as degradation of casein-FITC at 100 uM preincubated for 10 mins followed by casein addition measured for over 100 mins by fluorescence based assay; details: time > 110.0 min
ATP-dependent Clp protease proteolytic subunit (Neisseria gonorrhoeae), sequence (Q5F914 whole entry): as the sequence (Q5F914 whole entry) above

[7] = target: ATP-dependent Clp protease proteolytic subunit (Escherichia coli (strain K12)) (UniProt P0A6G7); test: Activation of N-terminal His-tagged recombinant Escherichia coli ClpP expressed in Escherichia coli SG1146(DE3) assessed as degradation of casein-FITC at 100 uM preincubated for 10 mins followed by casein addition measured for over 100 mins by fluorescence based assay; details: filed as activator, time > 110.0 min
ATP-dependent Clp protease proteolytic subunit (Escherichia coli (strain K12)), sequence (P0A6G7 whole entry): as the sequence (P0A6G7 whole entry) above

[8] = system: Neisseria gonorrhoeae; test: Antibacterial activity against Neisseria gonorrhoeae WHO X measured after 16 to 18 hrs by OD based assay; format: functional; details: time 16-18 hrs
[9] = system: Neisseria gonorrhoeae; test: Antibacterial activity against Neisseria gonorrhoeae WHO N measured after 16 to 18 hrs by OD based assay; format: functional; details: time 16-18 hrs
[10] = system: Neisseria meningitidis; test: Antibacterial activity against Neisseria meningitidis EG329 measured after 16 to 18 hrs by OD based assay; format: functional; details: time 16-18 hrs
[11] = system: Neisseria gonorrhoeae; test: Antibacterial activity against Neisseria gonorrhoeae WHO Y measured after 16 to 18 hrs by OD based assay; format: functional; details: time 16-18 hrs
[12] = system: Neisseria meningitidis; test: Antibacterial activity against Neisseria meningitidis BZ133 measured after 16 to 18 hrs by OD based assay; format: functional; details: time 16-18 hrs
[13] = system: Neisseria meningitidis; test: Antibacterial activity against Neisseria meningitidis 88/03415 measured after 16 to 18 hrs by OD based assay; format: functional; details: time 16-18 hrs
[14] = system: Neisseria gonorrhoeae; test: Antibacterial activity against Neisseria gonorrhoeae WHO M measured after 16 to 18 hrs by OD based assay; format: functional; details: time 16-18 hrs
[15] = system: Neisseria meningitidis; test: Antibacterial activity against Neisseria meningitidis H44/76 harboring deltaclpP measured after 16 to 18 hrs by OD based assay; format: functional; details: time 16-18 hrs
[16] = system: Neisseria gonorrhoeae; test: Antibacterial activity against Neisseria gonorrhoeae WHO Z measured after 16 to 18 hrs by OD based assay; format: functional; details: time 16-18 hrs
[17] = system: Neisseria meningitidis; test: Antibacterial activity against Neisseria meningitidis AK50 measured after 16 to 18 hrs by OD based assay; format: functional; details: time 16-18 hrs
[18] = system: Neisseria meningitidis; test: Antibacterial activity against Neisseria meningitidis NG144/82 measured after 16 to 18 hrs by OD based assay; format: functional; details: time 16-18 hrs
[19] = system: Neisseria meningitidis; test: Antibacterial activity against Neisseria meningitidis SWZ107 measured after 16 to 18 hrs by OD based assay; format: functional; details: time 16-18 hrs
[20] = system: Neisseria meningitidis; test: Antibacterial activity against Neisseria meningitidis BZ169 measured after 16 to 18 hrs by OD based assay; format: functional; details: time 16-18 hrs
[21] = system: Neisseria meningitidis; test: Antibacterial activity against Neisseria meningitidis NGF26 measured after 16 to 18 hrs by OD based assay; format: functional; details: time 16-18 hrs
[22] = system: Neisseria gonorrhoeae; test: Antibacterial activity against Neisseria gonorrhoeae WHO L measured after 16 to 18 hrs by OD based assay; format: functional; details: time 16-18 hrs
[23] = system: Neisseria gonorrhoeae; test: Antibacterial activity against Neisseria gonorrhoeae WHO P measured after 16 to 18 hrs by OD based assay; format: functional; details: time 16-18 hrs
[24] = system: Neisseria gonorrhoeae; test: Antibacterial activity against Neisseria gonorrhoeae WHO G measured after 16 to 18 hrs by OD based assay; format: functional; details: time 16-18 hrs
[25] = system: Neisseria gonorrhoeae; test: Antibacterial activity against Neisseria gonorrhoeae WHO K measured after 16 to 18 hrs by OD based assay; format: functional; details: time 16-18 hrs
[26] = system: Neisseria gonorrhoeae; test: Antibacterial activity against Neisseria gonorrhoeae FA19 measured after 16 to 18 hrs by OD based assay; format: functional; details: time 16-18 hrs
[27] = system: Neisseria gonorrhoeae; test: Antibacterial activity against Neisseria gonorrhoeae MS11 measured after 16 to 18 hrs by OD based assay; format: functional; details: time 16-18 hrs
[28] = system: Neisseria gonorrhoeae; test: Antibacterial activity against Neisseria gonorrhoeae WHO V measured after 16 to 18 hrs by OD based assay; format: functional; details: time 16-18 hrs
[29] = system: Neisseria meningitidis; test: Antibacterial activity against Neisseria meningitidis NGPB24 measured after 16 to 18 hrs by OD based assay; format: functional; details: time 16-18 hrs
[30] = system: Neisseria meningitidis; test: Antibacterial activity against wild-type Neisseria meningitidis H44/76 measured after 16 to 18 hrs by OD based assay; format: functional; details: time 16-18 hrs

SMILES: O=C(CP(=O)(c1ccc(C(F)(F)F)cn1)c1ccc(C(F)(F)F)cn1)NCCSc1ccccc1C(F)(F)F
pEC50 [1]: 5.75
Activity [2]: inactive
pEC50 [3]: 5.31
Activity [4]: inactive
Activity [5]: inactive

SMILES: CC(C)(C(=O)NCCSc1ccccc1C(F)(F)F)P(=O)(c1ccc(C(F)(F)F)cc1)c1ccc(C(F)(F)F)cc1
pEC50 [1]: 5.35
pEC50 [3]: 5.48

SMILES: CCC/C=C/C=C/C(=O)N[C@@H](Cc1cc(F)cc(F)c1)C(=O)N[C@@H]1C(=O)N2CCC[C@H]2C(=O)N2CCCC[C@H]2C(=O)N[C@@H](C)C(=O)N2C[C@H](C)C[C@H]2C(=O)O[C@H]1C (X1-[Phe(3,5-F2)][aThr]P[Pip]A[Pro(4R-Me)]; ester 2-C)
pEC50 [1]: 5.33
MIC [8]: 0.3 µM (≈ 0.239 µg/mL)
MIC [9]: 0.3 µM (≈ 0.239 µg/mL)
MIC [10]: < 0.3 µM
MIC [11]: 0.3 µM (≈ 0.239 µg/mL)
MIC [12]: 0.3 µM (≈ 0.239 µg/mL)
MIC [13]: 0.3 µM (≈ 0.239 µg/mL)
MIC [14]: 0.3 µM (≈ 0.239 µg/mL)
MIC [15]: > 25 µM
pEC50 [3]: 6.64
MIC [16]: 0.3 µM (≈ 0.239 µg/mL)
MIC [17]: 1.6 µM (≈ 1.28 µg/mL)
MIC [18]: 0.3 µM (≈ 0.239 µg/mL)
MIC [19]: < 0.3 µM
MIC [20]: 0.3 µM (≈ 0.239 µg/mL)
MIC [21]: 2.4 µM (≈ 1.91 µg/mL)
MIC [22]: 0.3 µM (≈ 0.239 µg/mL)
MIC [23]: 4.7 µM (≈ 3.75 µg/mL)
MIC [24]: 0.3 µM (≈ 0.239 µg/mL)
MIC [25]: 0.3 µM (≈ 0.239 µg/mL)
MIC [26]: 1.6 µM (≈ 1.28 µg/mL)
MIC [27]: 0.3 µM (≈ 0.239 µg/mL)
MIC [28]: 3.1 µM (≈ 2.47 µg/mL)
MIC [29]: 0.3 µM (≈ 0.239 µg/mL)
MIC [30]: < 0.3 µM

More lines, in order of rising pEC50 [1], values ahead:

pEC50 [1]: 5.14
Activity [2]: inactive
pEC50 [3]: 5.47
Activity [4]: inactive
Activity [5]: inactive
SMILES: CC(C)(C(=O)NCCSc1ccccc1Br)P(=O)(c1ccc(C(F)(F)F)cc1)c1ccc(C(F)(F)F)cc1

pEC50 [1]: 5.35
Activity [6]: inactive
Activity [7]: Active
SMILES: CC(C(=O)NCCSc1ccccc1C(F)(F)F)P(=O)(c1ccc(C(F)(F)F)cc1)c1ccc(C(F)(F)F)cc1 (stereo not given)

pEC50 [1]: 5.64
Activity [2]: inactive
pEC50 [3]: 5.29
Activity [4]: inactive
Activity [5]: inactive
SMILES: CC(C)(C(=O)NCCSc1ccccc1C(F)(F)F)P(=O)(c1ccccn1)c1ccccn1
